A short description of data set [1]: Apparent clearance in human hepatocytes assessed per million cells. In kind it is ADME, cell-based, Hepatocyte. To be noted: read-out: CLH.
The next data set in a line: physchem. Conditions: octanol/water phosphate buffer, pH 7.4.
The next data set relates to TYK2/JAK2 (Homo sapiens). Conditions: Blood, time 60.0 min.
For data set [2], the target named is Tyrosine-protein kinase JAK1 (Homo sapiens, UniProt P23458).
Data set [3] can be described thus: Clearance in human liver microsomes assessed per mg protein. In kind it is ADME, Microsome. To be noted: read-out: CLH.
Data set [4] has as its target T1, Tyrosine-protein kinase JAK3 (Homo sapiens, UniProt P52333).
T1 sequence (P52333 whole entry): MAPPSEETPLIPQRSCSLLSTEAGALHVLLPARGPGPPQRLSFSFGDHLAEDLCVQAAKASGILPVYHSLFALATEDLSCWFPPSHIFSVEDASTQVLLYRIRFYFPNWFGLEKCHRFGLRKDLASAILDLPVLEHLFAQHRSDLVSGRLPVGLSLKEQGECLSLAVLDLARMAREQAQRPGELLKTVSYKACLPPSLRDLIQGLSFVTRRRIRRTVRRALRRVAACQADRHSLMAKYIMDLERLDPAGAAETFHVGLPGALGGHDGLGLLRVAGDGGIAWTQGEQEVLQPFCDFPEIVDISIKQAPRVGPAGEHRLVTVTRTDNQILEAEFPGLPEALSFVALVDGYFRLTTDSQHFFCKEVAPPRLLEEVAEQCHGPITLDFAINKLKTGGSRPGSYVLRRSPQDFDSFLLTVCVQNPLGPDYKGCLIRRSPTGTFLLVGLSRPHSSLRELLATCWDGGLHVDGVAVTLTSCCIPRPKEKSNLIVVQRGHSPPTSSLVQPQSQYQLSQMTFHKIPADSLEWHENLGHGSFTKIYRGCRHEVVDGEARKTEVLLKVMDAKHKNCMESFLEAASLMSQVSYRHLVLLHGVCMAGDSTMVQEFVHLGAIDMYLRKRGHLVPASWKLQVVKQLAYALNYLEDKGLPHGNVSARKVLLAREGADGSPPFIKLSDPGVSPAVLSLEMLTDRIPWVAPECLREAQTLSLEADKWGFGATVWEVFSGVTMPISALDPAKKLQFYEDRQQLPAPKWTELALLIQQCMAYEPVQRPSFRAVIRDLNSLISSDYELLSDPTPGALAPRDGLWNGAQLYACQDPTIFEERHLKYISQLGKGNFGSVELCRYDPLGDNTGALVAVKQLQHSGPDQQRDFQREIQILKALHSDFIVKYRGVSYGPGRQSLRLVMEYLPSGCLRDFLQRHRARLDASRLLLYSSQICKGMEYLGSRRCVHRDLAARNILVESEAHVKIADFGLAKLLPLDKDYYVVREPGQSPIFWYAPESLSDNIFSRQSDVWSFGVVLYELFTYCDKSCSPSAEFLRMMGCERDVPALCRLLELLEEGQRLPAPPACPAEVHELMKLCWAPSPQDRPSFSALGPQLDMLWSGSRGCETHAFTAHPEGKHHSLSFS
As to the kind of experiment: Inhibition of recombinant human GST-tagged JAK3 catalytic domain (781 to 1124 residues) expressed in baculovirus expression system using FITC-KGGEEEEYFELVKK as substrate in presence of ATP at Km by microfluidic assay.

The nature of data set [5]: Fraction unbound in human plasma. In kind it is ADME, cell-free.
The species named for another data set is Homo sapiens. In words: Selectivity ratio of IC50 for recombinant human GST-tagged JAK2 catalytic domain (809 to 1153+9 residues) expressed in baculovirus expression system to IC50 for inhibition of recombinant human His-tagged TYK2 expressed in baculovirus infected Sf21 cells.
The target of data set [6] is T2, Tyrosine-protein kinase JAK2 (Homo sapiens, UniProt O60674). In words: Inhibition of recombinant human GST-tagged JAK2 catalytic domain (809 to 1153+9 residues) expressed in baculovirus expression system using FITC-KGGEEEEYFELVKK as substrate in presence of ATP at Km by microfluidic assay.
Data set [7] deals with Non-receptor tyrosine-protein kinase TYK2 (Homo sapiens, UniProt P29597). As to the kind of experiment: biochemical.
A short description of data set [8]: Apparent permeability in MDCK-II cells. Format: ADME, cell-based, Canis lupus familiaris. To be noted: dog.
The target of data set [9] is T2, Tyrosine-protein kinase JAK2. In words: Inhibition of JAK2 homodimer signaling pathway in human whole blood spiked with CD34 +ve cells assessed as reduction in EPO induced STAT5 phosphorylation preincubated for 45 mins followed by EPO addition and measured measured after 15 mins by immunostaining based FACS assay. Format: tissue-based.

Some results are limits rather than exact numbers.

Sequence of Non-receptor tyrosine-protein kinase TYK2 (P29597 whole entry): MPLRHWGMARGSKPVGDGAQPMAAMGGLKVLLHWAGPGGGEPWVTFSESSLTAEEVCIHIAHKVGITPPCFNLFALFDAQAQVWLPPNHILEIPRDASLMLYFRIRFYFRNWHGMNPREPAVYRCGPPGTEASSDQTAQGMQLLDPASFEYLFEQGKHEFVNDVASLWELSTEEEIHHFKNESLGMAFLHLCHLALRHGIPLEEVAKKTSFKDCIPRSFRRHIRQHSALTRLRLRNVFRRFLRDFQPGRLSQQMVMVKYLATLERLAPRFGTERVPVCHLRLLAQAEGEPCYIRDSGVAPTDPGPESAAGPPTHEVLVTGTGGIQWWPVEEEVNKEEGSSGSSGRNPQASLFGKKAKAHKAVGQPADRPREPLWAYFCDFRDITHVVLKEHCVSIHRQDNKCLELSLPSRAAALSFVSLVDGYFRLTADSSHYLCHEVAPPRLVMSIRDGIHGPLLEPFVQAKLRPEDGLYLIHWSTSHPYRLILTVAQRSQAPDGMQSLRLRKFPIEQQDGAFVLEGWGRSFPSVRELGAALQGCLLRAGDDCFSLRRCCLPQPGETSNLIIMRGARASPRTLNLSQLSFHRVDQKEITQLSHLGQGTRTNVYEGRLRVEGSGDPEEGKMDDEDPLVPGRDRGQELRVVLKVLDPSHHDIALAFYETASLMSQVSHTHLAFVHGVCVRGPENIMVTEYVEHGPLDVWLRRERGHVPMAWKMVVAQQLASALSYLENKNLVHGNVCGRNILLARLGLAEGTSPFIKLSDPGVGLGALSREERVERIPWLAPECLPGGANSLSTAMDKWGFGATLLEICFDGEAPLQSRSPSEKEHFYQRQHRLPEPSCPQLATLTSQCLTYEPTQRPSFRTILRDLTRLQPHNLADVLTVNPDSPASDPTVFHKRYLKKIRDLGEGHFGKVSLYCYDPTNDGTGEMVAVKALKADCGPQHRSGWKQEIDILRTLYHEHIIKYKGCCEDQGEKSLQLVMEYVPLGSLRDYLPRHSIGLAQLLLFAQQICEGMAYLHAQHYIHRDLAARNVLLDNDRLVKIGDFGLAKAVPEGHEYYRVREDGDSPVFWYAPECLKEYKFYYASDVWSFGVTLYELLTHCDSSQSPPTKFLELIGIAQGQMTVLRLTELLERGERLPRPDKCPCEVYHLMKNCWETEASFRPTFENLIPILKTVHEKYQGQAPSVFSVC
T2 sequence (O60674 whole entry, the tested form may be a part): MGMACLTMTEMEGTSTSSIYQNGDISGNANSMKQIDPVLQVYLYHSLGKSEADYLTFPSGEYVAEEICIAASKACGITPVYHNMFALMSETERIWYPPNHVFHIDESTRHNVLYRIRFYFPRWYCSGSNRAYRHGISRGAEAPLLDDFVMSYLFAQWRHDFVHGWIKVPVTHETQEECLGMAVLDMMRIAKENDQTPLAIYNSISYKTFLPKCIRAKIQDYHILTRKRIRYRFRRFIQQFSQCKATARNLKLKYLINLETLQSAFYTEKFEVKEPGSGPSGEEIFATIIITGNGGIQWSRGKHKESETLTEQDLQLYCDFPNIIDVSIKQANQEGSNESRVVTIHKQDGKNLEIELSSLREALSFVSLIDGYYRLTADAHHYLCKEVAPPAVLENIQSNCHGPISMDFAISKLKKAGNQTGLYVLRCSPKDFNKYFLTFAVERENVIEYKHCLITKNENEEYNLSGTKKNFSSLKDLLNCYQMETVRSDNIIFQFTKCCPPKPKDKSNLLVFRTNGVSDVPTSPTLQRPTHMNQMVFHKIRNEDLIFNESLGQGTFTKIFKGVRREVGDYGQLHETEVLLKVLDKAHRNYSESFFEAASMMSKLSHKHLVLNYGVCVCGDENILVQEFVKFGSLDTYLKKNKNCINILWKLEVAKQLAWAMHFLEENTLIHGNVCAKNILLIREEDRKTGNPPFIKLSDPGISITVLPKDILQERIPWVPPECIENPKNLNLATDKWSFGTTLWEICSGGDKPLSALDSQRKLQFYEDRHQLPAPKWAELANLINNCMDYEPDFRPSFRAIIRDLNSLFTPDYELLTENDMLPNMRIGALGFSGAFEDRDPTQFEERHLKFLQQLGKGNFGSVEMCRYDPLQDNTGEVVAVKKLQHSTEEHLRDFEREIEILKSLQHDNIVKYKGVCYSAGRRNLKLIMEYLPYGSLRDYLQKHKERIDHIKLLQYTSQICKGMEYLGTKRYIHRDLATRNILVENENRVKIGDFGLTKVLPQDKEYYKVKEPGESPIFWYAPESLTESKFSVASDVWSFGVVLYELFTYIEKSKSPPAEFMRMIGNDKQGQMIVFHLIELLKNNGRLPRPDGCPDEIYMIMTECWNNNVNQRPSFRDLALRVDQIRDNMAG
Sequence of Tyrosine-protein kinase JAK1 (P23458 whole entry): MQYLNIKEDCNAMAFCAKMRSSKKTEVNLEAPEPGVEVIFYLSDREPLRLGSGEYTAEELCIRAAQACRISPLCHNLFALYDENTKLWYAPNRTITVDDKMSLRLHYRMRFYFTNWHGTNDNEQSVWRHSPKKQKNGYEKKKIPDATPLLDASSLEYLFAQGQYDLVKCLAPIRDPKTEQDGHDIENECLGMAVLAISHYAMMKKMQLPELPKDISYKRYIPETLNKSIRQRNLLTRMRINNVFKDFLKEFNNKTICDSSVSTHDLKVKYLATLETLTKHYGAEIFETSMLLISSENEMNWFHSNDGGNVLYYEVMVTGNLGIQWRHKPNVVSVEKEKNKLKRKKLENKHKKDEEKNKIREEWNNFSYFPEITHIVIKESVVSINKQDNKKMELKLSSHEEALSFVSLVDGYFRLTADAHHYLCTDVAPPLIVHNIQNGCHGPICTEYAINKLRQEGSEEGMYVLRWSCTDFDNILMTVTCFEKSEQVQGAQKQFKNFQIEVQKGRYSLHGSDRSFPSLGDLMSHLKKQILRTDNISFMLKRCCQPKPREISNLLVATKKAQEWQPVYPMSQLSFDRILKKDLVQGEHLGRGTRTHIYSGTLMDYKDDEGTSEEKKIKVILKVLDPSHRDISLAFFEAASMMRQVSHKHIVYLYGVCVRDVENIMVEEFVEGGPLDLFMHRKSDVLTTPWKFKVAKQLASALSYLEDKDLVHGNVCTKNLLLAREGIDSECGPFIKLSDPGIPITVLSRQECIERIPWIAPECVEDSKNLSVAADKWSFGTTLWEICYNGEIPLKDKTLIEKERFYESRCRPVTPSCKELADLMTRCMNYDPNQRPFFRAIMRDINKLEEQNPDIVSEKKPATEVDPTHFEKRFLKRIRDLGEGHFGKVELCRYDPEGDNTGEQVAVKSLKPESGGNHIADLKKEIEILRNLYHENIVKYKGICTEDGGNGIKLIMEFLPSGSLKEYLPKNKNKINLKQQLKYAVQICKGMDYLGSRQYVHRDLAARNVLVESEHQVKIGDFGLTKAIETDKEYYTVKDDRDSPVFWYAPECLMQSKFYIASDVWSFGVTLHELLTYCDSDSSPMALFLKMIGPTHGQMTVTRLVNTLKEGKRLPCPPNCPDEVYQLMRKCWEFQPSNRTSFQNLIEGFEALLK
Description for physchem: Octanol/water phosphate buffer partition coefficient, log D of compound at pH 7.4 by shake-flask method

For `Cn1ccc(-c2cn3nccc3c(-c3cnn([C@]4(CC#N)C[C@@H](C#N)C4)c3)n2)n1`, the hepatocyte CLint in data set [1] is below 2 µL/min/1e6 cells. Further, the logD in the data set “physchem” came to 1.6. The fIC50 in the data set with TYK2/JAK2 (Homo sapiens) came to 254 nM. Besides, the IC50 is 2530 nM in [2], above 10000 nM in [4], 467 nM in data set [6] and 67 nM in data set [7]. In data set [3], the microsomal CLint was below 8 µL/min/mg. In addition, in [5], the fraction unbound came out at 0.2. Also, the Ratio IC50 in the data set filed under Homo sapiens came out at 7. In addition, the Papp in data set [8] stood at 20 ×10⁻⁶ cm/s.

On to `CC(=O)N1CC(CC#N)(n2cc(-c3nc(-c4cnn(C)c4)cn4nccc34)cn2)C1`, for which, in the data set “physchem”, the logD turned out to be 1.2. Further, the concentration for half-maximal inhibition (IC50) was 6110 nM in [2], above 10000 nM in data set [4], 1750 nM in data set [6] and 678 nM in data set [7]. In addition, in [3], the microsomal CLint is below 8 µL/min/mg. Moreover, the Papp in data set [8] is 4 ×10⁻⁶ cm/s.

As to `Cn1cc(-c2cn3nccc3c(-c3cnn(C4(CC#N)CN(CC5CC5)C4)c3)n2)cn1`, the IC50 in data set [2] is 933 nM; in [4] it was above 10000 nM; in data set [6], 187 nM; in data set [7] it was 40 nM. Besides, the microsomal CLint in data set [3] amounted to 30 µL/min/mg. Moreover, the Papp in data set [8] stood at 27 ×10⁻⁶ cm/s.

The molecule `Cn1cc(-c2cn3nccc3c(-c3cnn(C4(CC#N)CN(CC#N)C4)c3)n2)cn1` yielded a logD in “physchem” of 1.5. For the same molecule, in data set [3], the microsomal CLint is below 8 µL/min/mg. Besides, the apparent permeability coefficient (Papp) in data set [8] worked out at 11 ×10⁻⁶ cm/s.

With `CO[C@H]1C[C@@](CC#N)(n2cc(-c3nc(-c4cnn(C)c4)cn4nccc34)cn2)C1`, the logD in the data set “physchem” is 2.2. In addition, the microsomal CLint in data set [3] is 27 µL/min/mg. For the same molecule, in [4], the IC50 is above 10000 nM. In addition, the apparent permeability (Papp) in [8] was found to be 20 ×10⁻⁶ cm/s.

The molecule `Cn1cc(-c2cc(-c3cnn(C4(CC#N)CN(CC(F)(F)F)C4)c3)n3cnnc3c2)cn1` showed a log distribution coefficient (logD) in “physchem” of 1.2. In addition, the IC50 in data set [7] is above 10000 nM.

In turn, `Cn1cc(-c2cc(-c3cnn(C4(CC#N)CN(CC(F)(F)F)C4)c3)n3ncnc3c2)cn1` gave a logD in the data set “physchem” of 2.3. Further, in [7], inhibition was half-maximal at 476 nM (IC50).

Turning to `N#CC[C@]1(n2cc(-c3nc(-c4cc[nH]n4)cn4nccc34)cn2)C[C@@H](C#N)C1`, the logD in the data set “physchem” turned out to be 1.7. Besides, the IC50 in data set [2] came out at 43 nM; in [4] it was 4450 nM; in data set [6], 31 nM; in [7] it was 9 nM. For the same molecule, the microsomal CLint in data set [3] came to 20 µL/min/mg. Moreover, in data set [8], the Papp was 7 ×10⁻⁶ cm/s.

In turn, `Cn1cc(-c2cn3nccc3c(-c3cnn([C@]4(CC#N)C[C@H](CC#N)C4)c3)n2)cn1` gave a logD in “physchem” of 1.8. In data set [3], the microsomal CLint is 10 µL/min/mg. Further, the Papp in [8] came to 21 ×10⁻⁶ cm/s.

In the data set “physchem”, `N#CC[C@]1(n2cc(-c3nc(-c4cn[nH]c4)cn4nccc34)cn2)C[C@@H](C#N)C1` showed a logD of 1.6. For the same molecule, the IC50 came out at 22 nM in data set [2], 2240 nM in data set [4], 22 nM in data set [6] and 8 nM in data set [7]. For the same molecule, the microsomal CLint in data set [3] is 44 µL/min/mg. Also, in data set [8], the Papp is 6 ×10⁻⁶ cm/s.

Regarding `Cn1cc(-c2cn3nccc3c(-c3cnn(C4(CC#N)CN(CCO)C4)c3)n2)cn1`, the log distribution coefficient (logD) in the data set “physchem” came to 1.2. The IC50 in [2] is 5580 nM; in data set [4], above 10000 nM; in [6], 1040 nM; in [7] it was 189 nM. In [3], the microsomal CLint is below 8 µL/min/mg. Moreover, the Papp in data set [8] came to 7 ×10⁻⁶ cm/s.

For `N#CC[C@]1(n2cc(-c3nc(-c4cc[nH]n4)cn4nccc34)cn2)C[C@H](C#N)C1`, the hepatocyte CLint in data set [1] worked out at 7 µL/min/1e6 cells. The molecule further showed a logD in the data set “physchem” of 1.7. The fIC50 in the data set on TYK2/JAK2 (Homo sapiens) amounted to 334 nM. Moreover, the IC50 is 284 nM in [2], above 10000 nM in data set [4], 172 nM in data set [6] and 26 nM in data set [7]. In [3], the microsomal CLint is below 8 µL/min/mg. Besides, in data set [5], the fraction unbound worked out at 0.32. In the data set listed under Homo sapiens, the Ratio IC50 amounted to 7. The Papp in data set [8] stood at 17 ×10⁻⁶ cm/s.

For `N#CC[C@]1(n2cc(-c3nc(-c4cn[nH]c4)cn4nccc34)cn2)C[C@H](C#N)C1`, in the data set “physchem”, the logD was found to be 1.7. The IC50 in [2] was 398 nM; in data set [4] it was above 10000 nM; in data set [6], 280 nM; in [7] it was 44 nM. In [3], the microsomal CLint stood at 19 µL/min/mg. In addition, in [8], the Papp was 7 ×10⁻⁶ cm/s.

For the molecule `Cn1cc(-c2cn3nccc3c(-c3cnn([C@]4(CC#N)C[C@H](C#N)C4)c3)n2)cn1`, the hepatocyte CLint in data set [1] came to 12 µL/min/1e6 cells. In “physchem”, this molecule registered a log distribution coefficient (logD) of 1.8. Also, the microsomal CLint in [3] was found to be 17 µL/min/mg. In data set [5], this molecule had a fraction unbound of 0.34. For the same molecule, the Papp in data set [8] is 15 ×10⁻⁶ cm/s.

In turn, `Cn1cc(-c2cc(-c3cnn(C4(CC#N)CN(CC(F)(F)F)C4)c3)n3ccnc3c2)cn1` gave a logD in the data set “physchem” of 2.1. Moreover, half-maximal inhibition in data set [7] (IC50) required 290 nM.

`Cn1ccc(-c2cn3nccc3c(-c3cnn([C@]4(CC#N)C[C@H](C#N)C4)c3)n2)n1` came in with a logD in the data set “physchem” of 1.6. The half-inhibitory concentration (IC50) in data set [2] was 261 nM; in data set [4], above 9590 nM; in data set [6], 45 nM; in data set [7] it was 10 nM. In data set [3], the microsomal CLint came out at 23 µL/min/mg. Also, the Papp in data set [8] amounted to 14 ×10⁻⁶ cm/s.

With `CCN1CC(CC#N)(n2cc(-c3nc(-c4cnn(C)c4)cn4nccc34)cn2)C1`, the logD in the data set “physchem” came to 2.1. Also, the IC50 is 2670 nM in data set [2], above 10000 nM in data set [4], 346 nM in data set [6] and 46 nM in data set [7]. Also, in [3], the microsomal CLint came out at 21 µL/min/mg. Moreover, the Papp in data set [8] was 33 ×10⁻⁶ cm/s.

In the data set “physchem”, `Cn1cc(-c2cn3nccc3c(-c3cnn([C@]4(CC#N)C[C@@H](CC#N)C4)c3)n2)cn1` returned a pH-dependent lipophilicity (logD) of 1.9. Moreover, the microsomal CLint in [3] came out at 11 µL/min/mg. Further, the Papp in [8] amounted to 20 ×10⁻⁶ cm/s.

In the data set “physchem”, `Cn1cc(-c2cn3nccc3c(-c3cnn(C4(CC#N)CN(CC(F)(F)F)C4)c3)n2)cn1` came in with a logD of 2.5. In addition, the IC50 in data set [2] is 358 nM; in data set [4], above 9850 nM; in data set [6], 65 nM; in data set [7], 10 nM. For the same molecule, the microsomal CLint in [3] amounted to 18 µL/min/mg. Moreover, in data set [8], the Papp worked out at 18 ×10⁻⁶ cm/s.

On to `CO[C@H]1C[C@](CC#N)(n2cc(-c3nc(-c4cnn(C)c4)cn4nccc34)cn2)C1`, for which the hepatocyte CLint in data set [1] is 6 µL/min/1e6 cells. In “physchem”, this molecule yielded a logD of 2.3. The microsomal CLint in data set [3] was below 8 µL/min/mg. The free fraction (fraction unbound) in [5] was determined as 0.3. In data set [9], the IC50 turned out to be 1100 nM. In addition, in [8], the Papp was 22 ×10⁻⁶ cm/s.
